Common to all, as to format: cell-based, human
For one assay, the system named is MIF. Description: Real time RT-PCR of MIF mRNA in CSE-stimulated neutrophils from COPD patients. To be noted: RNO 1 nM and 1 μM, DEX 1 μM, RNO 1 nM plus DEX 1 μM, NAC 1 mM for 1 h, then CSE 5% 6 h. The procedure:
(§1) Neutrophils and monocytes were isolated from peripheral venous blood by standard laboratory procedures. In brief, peripheral venous blood was mixed with dextran 500 at 3% (in 0.9% saline) in a proportion of 2:1. This mixture was incubated at room temperature for 30 min until erythrocytes were sedimented. The upper phase was carefully collected and added on Ficoll-Paque Histopaque 1077 (Amershan Pharmacia Biotech, Barcelona, Spain) density gradient in a proportion of 3:1. The two phases generated were centrifuged at 150 g, 4° C. for 30 min. […]
(§2) CSE was prepared as previously outlined (Milara et al.; Ortiz et al.). […] The quality of the prepared CSE solution was assessed based on the absorbance at 320 nm, which is the specific absorption wavelength of peroxynitrite. Stock solutions with an absorbance value of 3.0±0.1 were used. […]
(§3) Total RNA was obtained from isolated neutrophils under basal conditions or after different drug and stimulation periods defined above by using TriPure® Isolation Reagent (Roche, Indianapolis, USA). […] Relative quantification of these transcripts was determined with the 2^−ΔΔCt method using glyceraldehyde phosphate dehydrogenase (GAPDH) as endogenous control (Applied Biosystems; 4352339E) and normalized to control group as previously described (Milara et al., 2009).
(§4) Then, mRNA was isolated and quantified for different genes.
A general note: In qPCR the cycle at which signal appears reflects the starting amount.

For another assay, the system named is p-ERK1/2. Description: Western blot of ERK1/2 phosphorylation in CSE-stimulated neutrophils from COPD patients. To be noted: RNO 1 nM and 1 μM, DEX 1 μM, RNO 1 nM plus DEX 1 μM, NAC 1 mM for 1 h, then CSE 5% 20 min. The procedure:
as §1, §2
Western blot analysis was used to detect changes in p-ERK1/2 (42-44 kD). […] Cells were then centrifuged and the total protein was extracted using a lysis buffer consisting of a complete inhibitor cocktail plus 1 mM ethylenediaminetetraacectic acid (Roche Diagnostics Ltd, West Sussex, UK) with 20 mM Tris base, 0.9% NaCl, 0.1% Triton X-100, 1 mM dithiothreitol and 1 μg mL^−1 pepstatin A. The Bio-Rad assay (Bio-Rad Laboratories Ltd., Herts, UK) was used (following manufacturer's instructions) to quantify the level of protein in each sample to ensure equal protein loading. […]

The next assay concerns intracellular ROS. In words: Intracellular reactive oxygen species (ROS) by flow cytometry in whole blood neutrophils from COPD patients. To be noted: fMLP 1 μM or CSE 5%, 1 h, NAC 1 mM. As to the method: Intracellular reactive oxygen species (ROS) were measured by a flow cytometry assay using 2′,7′-dichlorodihydrofluorescein diacetate (H2DCF-DA, Molecular Probes, UK) as previously outlined (Milara et al., 2010). H2DCF-DA was added for 15 min before stimulus to a final concentration of 5 μM to measure intracellular ROS. The bacterial peptide fMLP was added as stimulus at 1 μM […] to generate intracellular ROS (Elbim et al., 2001). In other experiments, to reproduce in vivo conditions, CSE 5% was added to generate intracellular ROS. Intracellular ROS was measured using fresh whole blood from COPD patients. Blood neutrophils were selected using CD16-Alexa Fluor 647 antibody (molecular probes, UK) as neutrophil marker, and CD14-PerCEP-Cy5.5 mouse antihuman (molecular probes, UK) as monocyte marker in an Epics Profile II flow cytometer. A total of 1 ml of whole blood was pre-incubated at 37° C. for 30 min with RNO ([…] (1 mM) and H2DCF-DA followed by fMLP 1 μM or CSE 5% stimulation for another 1 h. Then erythrocytes were lysed using a commercial erythrocyte lysis buffer (Biolegend, UK) for 10 min. Fluorescence intensity was measured in the polymorphonuclear region of whole blood in an Epics Profile II flow cytometer. Results were expressed as DCF fluorescence in relative fluorescence units (RFU).
To this end, whole blood was stimulated with the bacterial peptide fMLP 1 μM or with CSE 5% in presence or absence of RNO or NAC for 1 h.

The test system of the next assay is HDAC2. Description: Real time RT-PCR of HDAC2 expression in CSE-stimulated neutrophils from COPD patients. To be noted: RNO 1 nM and 1 μM, DEX 1 μM, RNO 1 nM plus DEX 1 μM, NAC 1 mM, CSE 5%. As to the method: as §1, §2, §3, §4

The results in this text go back to patent US20150164916A1, “ROFLUMILAST COMPOSITIONS FOR THE TREATMENT OF COPD” (Forest Laboratories Holdings Ltd., priority 2012, published 2015).

As to `O=C(Nc1c(Cl)c[n+]([O-])cc1Cl)c1ccc(OC(F)F)c(OCC2CC2)c1` [RNO, roflumilast N-oxide], the “effect on CSE-induced increase of MIF mRNA expression” value in the assay with MIF was “reversed the effect of CSE”. Moreover, the “effect on CSE-induced phosphorylation of ERK1/2” value with p-ERK1/2 is listed as “effectively inhibited”. Further, the “effect on ROS generation in neutrophils” value was “dose-dependently inhibited” in the assay on intracellular ROS and “inhibits” with intracellular ROS (listed as Roflumilast N-oxide). Besides, in the assay with HDAC2, the “effect on CSE-induced HDAC2 downregulation” value is “inhibited”.
